Assay results published in ChEMBL document CHEMBL4507284, “Data for DCP probe BI-1230” (2021).

Legend:
[1] = molecular target: Aurora kinase C (Homo sapiens) (UniProt Q9UQB9); settings: Compound concentration 1000.0 nM
[2] = molecular target: cGMP-dependent protein kinase 1 (Homo sapiens) (UniProt Q13976); settings: Compound concentration 1000.0 nM
[3] = molecular target: Focal adhesion kinase 1 (Homo sapiens) (UniProt Q05397); settings: Compound concentration 1000.0 nM
[4] = molecular target: Serine/threonine-protein kinase 17A (Homo sapiens) (UniProt Q9UEE5); settings: Compound concentration 1000.0 nM
[5] = molecular target: Cyclin-dependent kinase 16 (Homo sapiens) (UniProt Q00536); settings: Compound concentration 1000.0 nM
Chain of Cyclin-dependent kinase 16 (Homo sapiens) (Q00536 whole entry): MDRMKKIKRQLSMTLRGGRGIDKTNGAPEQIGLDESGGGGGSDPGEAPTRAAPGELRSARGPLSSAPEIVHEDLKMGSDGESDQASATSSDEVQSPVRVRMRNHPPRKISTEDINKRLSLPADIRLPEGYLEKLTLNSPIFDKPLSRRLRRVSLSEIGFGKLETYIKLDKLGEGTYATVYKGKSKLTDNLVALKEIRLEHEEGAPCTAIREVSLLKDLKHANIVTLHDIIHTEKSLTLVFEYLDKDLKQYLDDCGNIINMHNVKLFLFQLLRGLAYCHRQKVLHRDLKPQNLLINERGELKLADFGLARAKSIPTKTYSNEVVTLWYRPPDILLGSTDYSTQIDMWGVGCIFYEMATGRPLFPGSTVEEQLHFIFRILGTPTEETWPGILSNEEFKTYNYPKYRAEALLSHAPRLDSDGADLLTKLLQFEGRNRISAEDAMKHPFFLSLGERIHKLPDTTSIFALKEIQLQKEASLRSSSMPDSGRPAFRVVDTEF

[6] = tested on: Epidermal growth factor receptor (Homo sapiens), P00533 [L858R,T790M]; settings: Compound concentration 1000.0 nM
[7] = tested on: Tyrosine-protein kinase ABL1 (Homo sapiens), P00519 [M351T]; settings: Compound concentration 1000.0 nM
[8] = molecular target: Calcium/calmodulin-dependent protein kinase type II subunit gamma (Homo sapiens) (UniProt Q13555); settings: Compound concentration 1000.0 nM
[9] = molecular target: Mitogen-activated protein kinase kinase kinase 13 (Homo sapiens) (UniProt O43283); settings: Compound concentration 1000.0 nM
[10] = tested on: Epidermal growth factor receptor (Homo sapiens), P00533 [G719S]; settings: Compound concentration 1000.0 nM
[11] = molecular target: Cyclin-dependent kinase 4 (Homo sapiens) (UniProt P11802); settings: Compound concentration 1000.0 nM
[12] = molecular target: Serine/threonine-protein kinase PAK 5 (Homo sapiens) (UniProt Q9P286); settings: Compound concentration 1000.0 nM
[13] = molecular target: SRSF protein kinase 1 (Homo sapiens) (UniProt Q96SB4); settings: Compound concentration 1000.0 nM
[14] = molecular target: Serine/threonine-protein kinase BRSK1 (Homo sapiens) (UniProt Q8TDC3); settings: Compound concentration 1000.0 nM
Chain of Serine/threonine-protein kinase BRSK1 (Homo sapiens) (Q8TDC3 whole entry): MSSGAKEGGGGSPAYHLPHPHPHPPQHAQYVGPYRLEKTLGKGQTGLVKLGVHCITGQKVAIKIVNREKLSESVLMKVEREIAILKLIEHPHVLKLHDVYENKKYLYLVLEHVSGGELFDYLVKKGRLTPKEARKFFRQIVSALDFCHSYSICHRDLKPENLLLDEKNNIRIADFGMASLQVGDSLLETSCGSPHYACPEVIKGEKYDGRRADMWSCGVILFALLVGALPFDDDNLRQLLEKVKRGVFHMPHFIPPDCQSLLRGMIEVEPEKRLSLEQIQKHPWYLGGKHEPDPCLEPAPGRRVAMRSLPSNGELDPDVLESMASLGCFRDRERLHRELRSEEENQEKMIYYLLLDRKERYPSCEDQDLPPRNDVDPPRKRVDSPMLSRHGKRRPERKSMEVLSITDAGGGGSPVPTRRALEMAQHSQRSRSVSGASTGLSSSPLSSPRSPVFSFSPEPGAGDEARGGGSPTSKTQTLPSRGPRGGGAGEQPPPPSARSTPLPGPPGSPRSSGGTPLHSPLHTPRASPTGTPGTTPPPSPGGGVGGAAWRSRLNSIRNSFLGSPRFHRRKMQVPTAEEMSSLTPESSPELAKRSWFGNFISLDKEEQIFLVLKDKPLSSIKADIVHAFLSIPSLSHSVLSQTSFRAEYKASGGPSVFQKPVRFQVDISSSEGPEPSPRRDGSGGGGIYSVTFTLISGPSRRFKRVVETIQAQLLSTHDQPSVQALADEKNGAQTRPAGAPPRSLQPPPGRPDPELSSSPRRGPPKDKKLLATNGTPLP

[15] = molecular target: Myosin light chain kinase, smooth muscle (Homo sapiens) (UniProt Q15746); settings: Compound concentration 1000.0 nM
[16] = molecular target: Serine/threonine-protein kinase BRSK2 (Homo sapiens) (UniProt Q8IWQ3); settings: Compound concentration 1000.0 nM
Chain of Serine/threonine-protein kinase BRSK2 (Homo sapiens) (Q8IWQ3 whole entry): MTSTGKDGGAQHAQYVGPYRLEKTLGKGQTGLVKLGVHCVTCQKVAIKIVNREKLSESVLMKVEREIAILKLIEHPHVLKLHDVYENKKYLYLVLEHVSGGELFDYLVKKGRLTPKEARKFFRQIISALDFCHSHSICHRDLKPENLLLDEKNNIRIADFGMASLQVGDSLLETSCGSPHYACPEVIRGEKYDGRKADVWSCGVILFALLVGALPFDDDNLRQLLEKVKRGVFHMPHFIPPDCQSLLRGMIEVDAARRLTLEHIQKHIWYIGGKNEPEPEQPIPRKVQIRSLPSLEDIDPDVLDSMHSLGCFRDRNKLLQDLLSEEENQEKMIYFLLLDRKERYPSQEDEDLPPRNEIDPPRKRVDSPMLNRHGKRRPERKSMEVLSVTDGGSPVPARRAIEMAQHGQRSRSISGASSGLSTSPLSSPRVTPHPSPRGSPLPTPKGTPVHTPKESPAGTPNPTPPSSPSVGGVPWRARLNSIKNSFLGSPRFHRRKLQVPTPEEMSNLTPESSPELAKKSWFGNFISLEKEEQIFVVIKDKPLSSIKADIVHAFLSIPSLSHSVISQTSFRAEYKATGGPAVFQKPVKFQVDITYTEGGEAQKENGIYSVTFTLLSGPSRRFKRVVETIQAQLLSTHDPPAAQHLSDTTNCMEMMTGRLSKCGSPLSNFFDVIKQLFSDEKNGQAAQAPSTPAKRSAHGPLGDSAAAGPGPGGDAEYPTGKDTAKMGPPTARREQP

[17] = molecular target: Serine/threonine-protein kinase 25 (Homo sapiens) (UniProt O00506); settings: Compound concentration 1000.0 nM
[18] = molecular target: Sigma non-opioid intracellular receptor 1 (Homo sapiens) (UniProt Q99720); settings: Compound concentration 10.0 uM
[19] = tested on: Phosphatidylinositol 4,5-bisphosphate 3-kinase catalytic subunit alpha isoform (Homo sapiens), P42336 [I800L]; settings: Compound concentration 1000.0 nM
[20] = molecular target: Serine/threonine-protein kinase Nek7 (Homo sapiens) (UniProt Q8TDX7); settings: Compound concentration 1000.0 nM
[21] = molecular target: Ephrin type-B receptor 2 (Homo sapiens) (UniProt P29323); settings: Compound concentration 1000.0 nM
[22] = molecular target: BMP-2-inducible protein kinase (Homo sapiens) (UniProt Q9NSY1); settings: Compound concentration 1000.0 nM
[23] = molecular target: LIM domain kinase 2 (Homo sapiens) (UniProt P53671); settings: Compound concentration 1000.0 nM
[24] = tested on: Phosphatidylinositol 4,5-bisphosphate 3-kinase catalytic subunit alpha isoform (Homo sapiens), P42336 [H1047L]; settings: Compound concentration 1000.0 nM
[25] = molecular target: Serine/threonine-protein kinase WNK2 (Homo sapiens) (UniProt Q9Y3S1); settings: Compound concentration 1000.0 nM
[26] = molecular target: Tyrosine-protein kinase JAK2 (Homo sapiens) (UniProt O60674); settings: Compound concentration 1000.0 nM
[27] = molecular target: D(1B) dopamine receptor (Homo sapiens) (UniProt P21918); settings: Compound concentration 10.0 uM
[28] = molecular target: Ribosomal protein S6 kinase alpha-5 (Homo sapiens) (UniProt O75582); settings: Compound concentration 1000.0 nM
[29] = molecular target: Mitogen-activated protein kinase 3 (Homo sapiens) (UniProt P27361); settings: Compound concentration 1000.0 nM
[30] = molecular target: MAP/microtubule affinity-regulating kinase 3 (Homo sapiens) (UniProt P27448); settings: Compound concentration 1000.0 nM
[31] = molecular target: ALK tyrosine kinase receptor (Homo sapiens) (UniProt Q9UM73); settings: Compound concentration 1000.0 nM
[32] = molecular target: STE20/SPS1-related proline-alanine-rich protein kinase (Homo sapiens) (UniProt Q9UEW8); settings: Compound concentration 1000.0 nM
[33] = molecular target: Histamine H2 receptor (Homo sapiens) (UniProt P25021); settings: Compound concentration 10.0 uM
[34] = molecular target: Serine/threonine-protein kinase mTOR (Homo sapiens) (UniProt P42345); settings: Compound concentration 1000.0 nM
[35] = molecular target: Alpha-2C adrenergic receptor (Homo sapiens) (UniProt P18825); settings: Compound concentration 10.0 uM
[36] = molecular target: Phosphatidylinositol 4,5-bisphosphate 3-kinase catalytic subunit beta isoform (Homo sapiens) (UniProt P42338); settings: Compound concentration 1000.0 nM
[37] = tested on: Epidermal growth factor receptor (Homo sapiens), P00533 [UNDEFINED MUTATION]; settings: Compound concentration 1000.0 nM
[38] = molecular target: Mitogen-activated protein kinase 1 (Homo sapiens) (UniProt P28482); settings: Compound concentration 1000.0 nM
[39] = molecular target: Dual specificity protein kinase CLK1 (Homo sapiens) (UniProt P49759); settings: Compound concentration 1000.0 nM
[40] = molecular target: Serine/threonine-protein kinase ULK1 (Homo sapiens) (UniProt O75385); settings: Compound concentration 1000.0 nM
[41] = molecular target: Casein kinase II subunit alpha' (Homo sapiens) (UniProt P19784); settings: Compound concentration 1000.0 nM
Chain of Casein kinase II subunit alpha' (Homo sapiens) (P19784 whole entry, looked up): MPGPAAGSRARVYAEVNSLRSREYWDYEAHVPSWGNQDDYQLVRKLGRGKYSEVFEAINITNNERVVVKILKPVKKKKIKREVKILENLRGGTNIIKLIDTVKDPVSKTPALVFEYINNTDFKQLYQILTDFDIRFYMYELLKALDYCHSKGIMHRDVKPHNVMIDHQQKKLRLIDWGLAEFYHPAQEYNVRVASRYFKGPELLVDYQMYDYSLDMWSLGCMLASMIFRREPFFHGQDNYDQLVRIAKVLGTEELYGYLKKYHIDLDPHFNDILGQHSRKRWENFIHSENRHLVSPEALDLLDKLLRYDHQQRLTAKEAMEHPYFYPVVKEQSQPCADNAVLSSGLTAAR

[42] = molecular target: Aurora kinase B (Homo sapiens) (UniProt Q96GD4); settings: Compound concentration 1000.0 nM
Chain of Aurora kinase B (Homo sapiens) (Q96GD4 whole entry): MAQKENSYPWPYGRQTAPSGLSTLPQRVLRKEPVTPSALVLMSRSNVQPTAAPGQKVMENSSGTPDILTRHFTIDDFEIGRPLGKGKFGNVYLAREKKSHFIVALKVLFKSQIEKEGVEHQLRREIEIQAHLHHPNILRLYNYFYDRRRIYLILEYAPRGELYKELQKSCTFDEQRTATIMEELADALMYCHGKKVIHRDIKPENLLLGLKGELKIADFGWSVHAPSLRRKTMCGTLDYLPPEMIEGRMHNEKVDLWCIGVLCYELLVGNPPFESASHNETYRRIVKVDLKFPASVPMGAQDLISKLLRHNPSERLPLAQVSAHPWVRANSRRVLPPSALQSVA

[43] = molecular target: Cyclin-dependent kinase-like 5 (Homo sapiens) (UniProt O76039); settings: Compound concentration 1000.0 nM
[44] = molecular target: Homeodomain-interacting protein kinase 3 (Homo sapiens) (UniProt Q9H422); settings: Compound concentration 1000.0 nM
Chain of Homeodomain-interacting protein kinase 3 (Homo sapiens) (Q9H422 whole entry, looked up): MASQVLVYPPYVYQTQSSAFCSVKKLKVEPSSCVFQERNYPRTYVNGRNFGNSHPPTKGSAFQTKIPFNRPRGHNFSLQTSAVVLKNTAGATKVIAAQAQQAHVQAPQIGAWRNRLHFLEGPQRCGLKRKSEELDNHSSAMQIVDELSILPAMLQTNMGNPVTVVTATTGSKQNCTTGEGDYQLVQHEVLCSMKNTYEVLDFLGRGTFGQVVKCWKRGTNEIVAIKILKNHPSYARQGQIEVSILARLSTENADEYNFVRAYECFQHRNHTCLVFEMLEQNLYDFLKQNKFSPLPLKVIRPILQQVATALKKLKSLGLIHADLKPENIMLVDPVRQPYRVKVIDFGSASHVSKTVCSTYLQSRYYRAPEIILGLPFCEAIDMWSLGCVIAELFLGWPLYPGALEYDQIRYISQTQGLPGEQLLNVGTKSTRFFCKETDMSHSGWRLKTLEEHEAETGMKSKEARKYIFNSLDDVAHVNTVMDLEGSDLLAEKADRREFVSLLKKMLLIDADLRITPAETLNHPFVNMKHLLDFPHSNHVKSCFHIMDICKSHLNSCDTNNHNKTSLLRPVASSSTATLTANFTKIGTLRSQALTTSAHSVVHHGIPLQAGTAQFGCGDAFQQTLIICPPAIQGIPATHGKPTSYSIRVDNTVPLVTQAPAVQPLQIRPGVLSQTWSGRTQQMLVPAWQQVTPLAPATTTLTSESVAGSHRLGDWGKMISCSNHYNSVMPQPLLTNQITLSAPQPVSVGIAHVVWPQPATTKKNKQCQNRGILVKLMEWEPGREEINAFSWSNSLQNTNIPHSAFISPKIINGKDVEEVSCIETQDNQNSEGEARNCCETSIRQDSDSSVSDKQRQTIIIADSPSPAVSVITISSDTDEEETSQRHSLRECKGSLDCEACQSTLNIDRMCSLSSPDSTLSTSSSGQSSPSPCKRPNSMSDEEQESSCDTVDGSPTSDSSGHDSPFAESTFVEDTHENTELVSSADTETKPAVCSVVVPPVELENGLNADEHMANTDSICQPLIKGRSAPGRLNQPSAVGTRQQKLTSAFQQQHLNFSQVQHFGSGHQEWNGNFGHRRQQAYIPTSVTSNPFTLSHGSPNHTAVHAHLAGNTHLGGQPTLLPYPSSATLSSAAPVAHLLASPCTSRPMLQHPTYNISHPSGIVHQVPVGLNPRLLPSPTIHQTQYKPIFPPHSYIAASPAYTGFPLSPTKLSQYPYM

[45] = molecular target: Mitogen-activated protein kinase kinase kinase kinase 3 (Homo sapiens) (UniProt Q8IVH8); settings: Compound concentration 1000.0 nM

Chain of cGMP-dependent protein kinase 1 (Homo sapiens) (Q13976 whole entry): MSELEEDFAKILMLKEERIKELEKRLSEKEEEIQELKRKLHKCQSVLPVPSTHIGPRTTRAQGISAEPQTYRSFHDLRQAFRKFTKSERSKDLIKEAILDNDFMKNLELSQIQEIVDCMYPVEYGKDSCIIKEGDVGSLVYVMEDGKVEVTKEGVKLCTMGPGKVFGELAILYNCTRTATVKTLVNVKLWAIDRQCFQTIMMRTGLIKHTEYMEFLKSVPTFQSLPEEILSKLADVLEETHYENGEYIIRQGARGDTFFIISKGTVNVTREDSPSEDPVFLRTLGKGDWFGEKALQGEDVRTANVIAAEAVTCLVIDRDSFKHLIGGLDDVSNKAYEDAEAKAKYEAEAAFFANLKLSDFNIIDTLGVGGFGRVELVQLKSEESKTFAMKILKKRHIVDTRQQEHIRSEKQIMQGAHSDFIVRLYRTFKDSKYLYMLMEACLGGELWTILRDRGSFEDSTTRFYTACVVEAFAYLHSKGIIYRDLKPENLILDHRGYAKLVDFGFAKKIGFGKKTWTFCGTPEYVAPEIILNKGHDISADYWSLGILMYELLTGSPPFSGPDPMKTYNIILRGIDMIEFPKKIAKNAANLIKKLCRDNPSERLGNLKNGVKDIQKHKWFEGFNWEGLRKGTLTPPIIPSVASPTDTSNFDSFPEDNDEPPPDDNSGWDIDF
Chain of Aurora kinase C (Homo sapiens) (Q9UQB9 whole entry): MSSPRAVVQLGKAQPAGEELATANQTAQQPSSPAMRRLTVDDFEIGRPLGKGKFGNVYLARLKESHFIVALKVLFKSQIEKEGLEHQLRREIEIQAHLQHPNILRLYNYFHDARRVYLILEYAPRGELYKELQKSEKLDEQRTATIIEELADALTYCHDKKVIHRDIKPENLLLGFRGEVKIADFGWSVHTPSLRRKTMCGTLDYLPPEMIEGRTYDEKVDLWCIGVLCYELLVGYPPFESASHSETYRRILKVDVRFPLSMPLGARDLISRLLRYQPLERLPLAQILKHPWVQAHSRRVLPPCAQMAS

COc1ccc2c(O[C@@H]3C[C@H]4C(=O)N[C@]5(C(=O)O)CC5/C=C\CCCCC[C@H](NC(=O)OC5CCCC5)C(=O)N4C3)cc(-c3csc(NC(=O)C(C)C)n3)nc2c1C (stereo not given in full) [BI 1230]
residual activity [1]: 96%
residual activity [2]: 100%
residual activity [3]: 99%
residual activity [4]: 99%
residual activity [5]: 79%
residual activity [6]: 100%
residual activity [7]: 90%
residual activity [8]: 100%
residual activity [9]: 86%
residual activity [10]: 76%
residual activity [11]: 88%
residual activity [12]: 100%
residual activity [13]: 100%
residual activity [14]: 85%
residual activity [15]: 78%
residual activity [16]: 100%
residual activity [17]: 100%
inhibition [18]: 42.1%
residual activity [19]: 65%
residual activity [20]: 100%
residual activity [21]: 98%
residual activity [22]: 90%
residual activity [23]: 100%
residual activity [24]: 79%
residual activity [25]: 87%
residual activity [26]: 64%
inhibition [27]: 47.1%
residual activity [28]: 100%
residual activity [29]: 94%
residual activity [30]: 95%
residual activity [31]: 74%
residual activity [32]: 100%
inhibition [33]: 39.4%
residual activity [34]: 100%
inhibition [35]: 56.8%
residual activity [36]: 62%
residual activity [37]: 81%
residual activity [38]: 89%
residual activity [39]: 98%
residual activity [40]: 93%
residual activity [41]: 100%
residual activity [42]: 91%
residual activity [43]: 77%
residual activity [44]: 83%
residual activity [45]: 100%

O=C(N[C@H]1CCCCC/C=C\C2C[C@@]2(C(=O)O)NC(=O)[C@@H]2C[C@@H](Oc3ccncc3)CN2C1=O)OC1CCCC1 (stereo not given in full) [BI 1675]
residual activity [1]: 92%
residual activity [2]: 100%
residual activity [3]: 97%
residual activity [4]: 100%
residual activity [5]: 83%
residual activity [6]: 98%
residual activity [7]: 89%
residual activity [8]: 86%
residual activity [9]: 100%
residual activity [10]: 63%
residual activity [11]: 89%
residual activity [12]: 83%
residual activity [13]: 91%
residual activity [14]: 80%
residual activity [15]: 100%
residual activity [16]: 100%
residual activity [17]: 97%
inhibition [18]: 11.1%
residual activity [19]: 100%
residual activity [20]: 100%
residual activity [21]: 91%
residual activity [22]: 96%
residual activity [23]: 93%
residual activity [24]: 100%
residual activity [25]: 100%
residual activity [26]: 100%
inhibition [27]: 11.3%
residual activity [28]: 89%
residual activity [29]: 69%
residual activity [30]: 100%
residual activity [31]: 100%
residual activity [32]: 100%
inhibition [33]: 15.6%
residual activity [34]: 100%
inhibition [35]: -4.47%
residual activity [36]: 100%
residual activity [37]: 85%
residual activity [38]: 72%
residual activity [39]: 100%
residual activity [40]: 100%
residual activity [41]: 100%
residual activity [42]: 89%
residual activity [43]: 83%
residual activity [44]: 100%
residual activity [45]: 100%
